According to ChEMBL document CHEMBL4808193, “[11]-Chaetoglobosins from Pseudeurotium bakeri Induce G2/M Cell Cycle Arrest and Apoptosis in Human Cancer Cells” (J Nat Prod, 2021):
Where a name gives a salt, the structure may show the parent alone.

Columns and labels:
HCT-116 = experiment: Cytotoxicity against human HCT-116 cells assessed as reduction in cell viability by MTT assay; assay type: functional, cell-based
HT-29 = experiment: Cytotoxicity against human HT-29 cells assessed as reduction in cell viability by MTT assay; assay type: functional, cell-based
HepG2 = experiment: Cytotoxicity against human HepG2 cells assessed as reduction in cell viability by MTT assay; assay type: functional, cell-based
L02 = experiment: Cytotoxicity against human L02 cells assessed as reduction in cell viability by MTT assay; assay type: cell-based
A549 = experiment: Cytotoxicity against human A549 cells assessed as reduction in cell viability by MTT assay; assay type: functional, cell-based
A-427 [1] = experiment: Cytotoxicity against human A-427 cells assessed as reduction in cell viability by MTT assay; assay type: functional, cell-based
MCF7 [2] = experiment: Cytotoxicity against human MCF7 cells assessed as reduction in cell viability by MTT assay; assay type: functional, cell-based
HeLa = experiment: Cytotoxicity against human HeLa cells assessed as reduction in cell viability by MTT assay; assay type: functional, cell-based
A-427 [3] = experiment: Induction of apoptosis in human A-427 cells assessed as late apoptotic cells at 10 uM measured after 24 hrs by Annexin V-FITC/propidium iodide staining based flow cytometric analysis (reference value: 2.06%); assay type: functional
A-427 [4] = experiment: Induction of apoptosis in human A-427 cells assessed as late apoptotic cells at 5 uM measured after 24 hrs by Annexin V-FITC/propidium iodide staining based flow cytometric analysis (reference value: 2.06%); assay type: functional
A-427 [5] = experiment: Induction of apoptosis in human A-427 cells assessed as late apoptotic cells at 2.5 uM measured after 24 hrs by Annexin V-FITC/propidium iodide staining based flow cytometric analysis (reference value: 2.06%); assay type: functional
A-427 [6] = experiment: Induction of apoptosis in human A-427 cells assessed as early apoptotic cells at 10 uM measured after 24 hrs by Annexin V-FITC/propidium iodide staining based flow cytometric analysis (reference value: 6.58%); assay type: functional
A-427 [7] = experiment: Induction of apoptosis in human A-427 cells assessed as early apoptotic cells at 5 uM measured after 24 hrs by Annexin V-FITC/propidium iodide staining based flow cytometric analysis (reference value: 6.58%); assay type: functional
A-427 [8] = experiment: Induction of apoptosis in human A-427 cells assessed as early apoptotic cells at 2.5 uM measured after 24 hrs by Annexin V-FITC/propidium iodide staining based flow cytometric analysis (reference value: 6.58%); assay type: functional
MCF7 [9] = experiment: Induction of apoptosis in human MCF7 cells assessed as late apoptotic cells at 15 uM measured after 24 hrs by Annexin V-FITC/propidium iodide staining based flow cytometric analysis (reference value: 0.38%); assay type: functional
MCF7 [10] = experiment: Induction of apoptosis in human MCF7 cells assessed as late apoptotic cells at 10 uM measured after 24 hrs by Annexin V-FITC/propidium iodide staining based flow cytometric analysis (reference value: 0.38%); assay type: functional
MCF7 [11] = experiment: Induction of apoptosis in human MCF7 cells assessed as late apoptotic cells at 5 uM measured after 24 hrs by Annexin V-FITC/propidium iodide staining based flow cytometric analysis (reference value: 0.38%); assay type: functional
MCF7 [12] = experiment: Induction of apoptosis in human MCF7 cells assessed as early apoptotic cells at 15 uM measured after 24 hrs by Annexin V-FITC/propidium iodide staining based flow cytometric analysis (reference value: 1.49%); assay type: functional
MCF7 [13] = experiment: Induction of apoptosis in human MCF7 cells assessed as early apoptotic cells at 10 uM measured after 24 hrs by Annexin V-FITC/propidium iodide staining based flow cytometric analysis (reference value: 1.49%); assay type: functional
MCF7 [14] = experiment: Induction of apoptosis in human MCF7 cells assessed as early apoptotic cells at 5 uM measured after 24 hrs by Annexin V-FITC/propidium iodide staining based flow cytometric analysis (reference value: 1.49%); assay type: functional
A-427 [15] = experiment: Cell cycle arrest in human A-427 cells assessed as accumulation at G2/M phase at 10 uM measured after 24 hrs by PI staining based flow cytometry (reference value: 18.80%); assay type: functional
A-427 [16] = experiment: Cell cycle arrest in human A-427 cells assessed as accumulation at S phase at 10 uM measured after 24 hrs by PI staining based flow cytometry (reference value: 33.14%); assay type: functional
A-427 [17] = experiment: Cell cycle arrest in human A-427 cells assessed as accumulation at G0/G1 phase at 10 uM measured after 24 hrs by PI staining based flow cytometry (reference value: 48.06%); assay type: functional
A-427 [18] = experiment: Cell cycle arrest in human A-427 cells assessed as accumulation at G2/M phase at 5 uM measured after 24 hrs by PI staining based flow cytometry (reference value: 18.80%); assay type: functional
A-427 [19] = experiment: Cell cycle arrest in human A-427 cells assessed as accumulation at S phase at 5 uM measured after 24 hrs by PI staining based flow cytometry (reference value: 33.14%); assay type: functional
A-427 [20] = experiment: Cell cycle arrest in human A-427 cells assessed as accumulation at G0/G1 phase at 5 uM measured after 24 hrs by PI staining based flow cytometry (reference value: 48.06%); assay type: functional
A-427 [21] = experiment: Cell cycle arrest in human A-427 cells assessed as accumulation at G2/M phase at 2.5 uM measured after 24 hrs by PI staining based flow cytometry (reference value: 18.80%); assay type: functional
A-427 [22] = experiment: Cell cycle arrest in human A-427 cells assessed as accumulation at S phase at 2.5 uM measured after 24 hrs by PI staining based flow cytometry (reference value: 33.14%); assay type: functional
A-427 [23] = experiment: Cell cycle arrest in human A-427 cells assessed as accumulation at G0/G1 phase at 2.5 uM measured after 24 hrs by PI staining based flow cytometry (reference value: 48.06%); assay type: functional
MCF7 [24] = experiment: Cell cycle arrest in human MCF7 cells assessed as accumulation at G2/M phase at 4.5 uM measured after 24 hrs by PI staining based flow cytometry (reference value: 15.28%); assay type: functional
MCF7 [25] = experiment: Cell cycle arrest in human MCF7 cells assessed as accumulation at S phase at 4.5 uM measured after 24 hrs by PI staining based flow cytometry (reference value: 34.14%); assay type: functional
MCF7 [26] = experiment: Cell cycle arrest in human MCF7 cells assessed as accumulation at G0/G1 phase at 4.5 uM measured after 24 hrs by PI staining based flow cytometry (reference value: 50.58%); assay type: functional
MCF7 [27] = experiment: Cell cycle arrest in human MCF7 cells assessed as accumulation at G2/M phase at 3 uM measured after 24 hrs by PI staining based flow cytometry (reference value: 15.28%); assay type: functional
MCF7 [28] = experiment: Cell cycle arrest in human MCF7 cells assessed as accumulation at S phase at 3 uM measured after 24 hrs by PI staining based flow cytometry (reference value: 34.14%; assay type: functional
MCF7 [29] = experiment: Cell cycle arrest in human MCF7 cells assessed as accumulation at G0/G1 phase at 3 uM measured after 24 hrs by PI staining based flow cytometry (reference value: 50.58%); assay type: functional
MCF7 [30] = experiment: Cell cycle arrest in human MCF7 cells assessed as accumulation at G2/M phase at 1.5 uM measured after 24 hrs by PI staining based flow cytometry (reference value: 15.28%); assay type: functional
MCF7 [31] = experiment: Cell cycle arrest in human MCF7 cells assessed as accumulation at S phase at 1.5 uM measured after 24 hrs by PI staining based flow cytometry (reference value: 34.14%); assay type: functional
MCF7 [32] = experiment: Cell cycle arrest in human MCF7 cells assessed as accumulation at G0/G1 phase at 1.5 uM measured after 24 hrs by PI staining based flow cytometry (reference value: 50.58%); assay type: functional

COc1cccc2c1C(=O)c1c(O)c3c(c(O)c1C2=O)C[C@@](O)(C(=O)CO)C[C@@H]3O[C@H]1C[C@H](N)[C@H](O)[C@H](C)O1 [DOXORUBICIN HYDROCHLORIDE]
IC50 (HCT-116): 2.9 µM
IC50 (HT-29): 2.6 µM
IC50 (HepG2): 0.4 µM
IC50 (L02): 0.7 µM

CO[C@@H]1CC(=O)C[C@@H](C)C/C=C/[C@H]2C=C(C)[C@@H](C)[C@H]3[C@H](Cc4c[nH]c5ccccc45)NC(=O)[C@]32C1=O
IC50 (A549): 23.3 µM
IC50 (A-427 [1]): > 50 µM
IC50 (HCT-116): 30.9 µM
IC50 (HT-29): 43.8 µM
IC50 (MCF7 [2]): > 50 µM
IC50 (HeLa): > 50 µM
IC50 (HepG2): 44.4 µM
IC50 (L02): > 50 µM

CC1=C[C@@H]2/C=C/C[C@H](C)CCCCC(=O)[C@]23C(=O)N[C@@H](Cc2c[nH]c4ccccc24)[C@@H]3[C@@H]1C
IC50 (A549): > 50 µM
IC50 (A-427 [1]): 13.8 µM
IC50 (HCT-116): 38.5 µM
IC50 (HT-29): > 50 µM
IC50 (MCF7 [2]): > 50 µM
IC50 (HeLa): 20.3 µM
IC50 (HepG2): > 50 µM
IC50 (L02): > 50 µM

CC1=C(C)[C@H]2[C@H](Cc3c[nH]c4ccccc34)NC(=O)[C@]23C(=O)/C=C\CC[C@@H](C)C/C=C/[C@H]3[C@@H]1O
IC50 (A549): 6.9 µM
IC50 (A-427 [1]): 7.5 µM
IC50 (HCT-116): 11.2 µM
IC50 (HT-29): 8.8 µM
IC50 (MCF7 [2]): 6.8 µM
IC50 (HeLa): 10.1 µM
IC50 (HepG2): 10.7 µM
IC50 (L02): 41.8 µM
Activity (A-427 [3]): 33.54%
Activity (A-427 [4]): 33.06%
Activity (A-427 [5]): 32.65%
Activity (A-427 [6]): 31.16%
Activity (A-427 [7]): 20.64%
Activity (A-427 [8]): 18.24%
Activity (MCF7 [9]): 21.26%
Activity (MCF7 [10]): 15.06%
Activity (MCF7 [11]): 11.69%
Activity (MCF7 [12]): 12.83%
Activity (MCF7 [13]): 11.17%
Activity (MCF7 [14]): 10.35%
Activity (A-427 [15]): 42.41%
Activity (A-427 [16]): 22.03%
Activity (A-427 [17]): 35.56%
Activity (A-427 [18]): 37.05%
Activity (A-427 [19]): 21.59%
Activity (A-427 [20]): 41.36%
Activity (A-427 [21]): 34.23%
Activity (A-427 [22]): 20.59%
Activity (A-427 [23]): 45.18%
Activity (MCF7 [24]): 82.7%
Activity (MCF7 [25]): 8.06%
Activity (MCF7 [26]): 9.24%
Activity (MCF7 [27]): 71.45%
Activity (MCF7 [28]): 11.19%
Activity (MCF7 [29]): 17.36%
Activity (MCF7 [30]): 58.41%
Activity (MCF7 [31]): 17.94%
Activity (MCF7 [32]): 23.65%

CC(=O)O[C@@H]1CC(=O)C[C@@H](C)C/C=C/[C@H]2[C@H](O)C(C)=C(C)[C@H]3[C@H](Cc4c[nH]c5ccccc45)NC(=O)[C@@]23C1=O
IC50 (A549): 15.9 µM
IC50 (A-427 [1]): > 50 µM
IC50 (HCT-116): 21.2 µM
IC50 (HT-29): > 50 µM
IC50 (MCF7 [2]): > 50 µM
IC50 (HeLa): > 50 µM
IC50 (HepG2): > 50 µM
IC50 (L02): > 50 µM

C[C@H]1C/C=C/[C@H]2C(=O)[C@H](C)[C@@H](C)[C@H]3[C@H](Cc4c[nH]c5ccccc45)NC(=O)[C@]32C(=O)CCCC1
IC50 (A549): > 50 µM
IC50 (A-427 [1]): > 50 µM
IC50 (HCT-116): > 50 µM
IC50 (HT-29): > 50 µM
IC50 (MCF7 [2]): > 50 µM
IC50 (HeLa): > 50 µM
IC50 (HepG2): > 50 µM
IC50 (L02): > 50 µM

CC1=C(C)[C@H]2[C@H](Cc3c[nH]c4ccccc34)NC(=O)[C@]23C(=O)CCCC[C@@H](C)C/C=C/[C@H]3[C@@H]1O
IC50 (A549): > 50 µM
IC50 (A-427 [1]): > 50 µM
IC50 (HCT-116): > 50 µM
IC50 (HT-29): > 50 µM
IC50 (MCF7 [2]): > 50 µM
IC50 (HeLa): 18.9 µM
IC50 (HepG2): > 50 µM
IC50 (L02): 46.3 µM

CO[C@@H]1/C=C\[C@@H](C)C/C=C/[C@H]2[C@H](O)C(C)=C(C)[C@H]3[C@H](Cc4c[nH]c5ccccc45)NC(=O)[C@@]23C(=O)C1
IC50 (A549): 21.5 µM
IC50 (A-427 [1]): > 50 µM
IC50 (HCT-116): 26.1 µM
IC50 (HT-29): > 50 µM
IC50 (MCF7 [2]): > 50 µM
IC50 (HeLa): 41.5 µM
IC50 (HepG2): > 50 µM
IC50 (L02): > 50 µM

C=C1[C@@H](C)[C@H]2[C@H](Cc3c[nH]c4ccccc34)NC(=O)[C@]23C(=O)CCCC[C@@H](C)C/C=C/[C@H]3[C@@H]1O
IC50 (A549): 40.4 µM
IC50 (A-427 [1]): > 50 µM
IC50 (HCT-116): 45.3 µM
IC50 (HT-29): > 50 µM
IC50 (MCF7 [2]): > 50 µM
IC50 (HeLa): > 50 µM
IC50 (HepG2): > 50 µM
IC50 (L02): > 50 µM

CC1=C[C@@H]2/C=C/C[C@H](C)CC(=O)[C@@H]3O[C@H]3C(=O)[C@]23C(=O)N[C@@H](Cc2c[nH]c4ccccc24)[C@@H]3[C@@H]1C
IC50 (A549): 44 µM
IC50 (A-427 [1]): > 50 µM
IC50 (HCT-116): > 50 µM
IC50 (HT-29): 40.4 µM
IC50 (MCF7 [2]): > 50 µM
IC50 (HeLa): > 50 µM
IC50 (HepG2): 37.3 µM
IC50 (L02): > 50 µM
